Values after ≈ are worked out from the molar mass of the structure shown. “Also recorded” adds a separate entry of the source.
Key:
pests = assay: Pesticidal effectiveness, overall; details: in vivo
Source text: The pesticidal activity of the compounds according to this invention against green rice leafhoppers (Nephotettix cincticeps Uhler), rice stem borers (Chilo suppressalis Walker), tobacco cutworms (Prodenia litura […]) and houseflies (Musca domestica), as examples of the pests against which the same compounds are considered effective, the acute toxicity data on the same compounds as determined in rat by the oral route and the median tolerance limit (TLm) data on the same compounds as determined in killifish (Orizias latipes) and guppies (Lebistes reticulatus) are shown in Table 1 alongside the corresponding values for various control compounds. The pesticidal effects were determined by the procedures set forth in Test Examples 1 through 4, while the acute toxicity to rat was determined by the procedure set forth in Test Example 9 and the toxicity to fish was determined by the procedures set forth in Test Examples 6 and 7, all those Examples appearing hereinafter.

[1] = tested on: water-fleas (Daphnia pulex); assay: Toxicity test with water-fleas; type: in vivo; details: 25±1° C.
Method: Toxicity test with water-fleas (Daphnia pulex)
An acetone solution of one of the test compounds as mentioned in Table 10 and Tween-20 (the same surfactant as mentioned hereinbefore) was prepared. To 100 ml of water in a high-walled dish (9 cm in diameter, 7 cm deep) was added the above acetone solution. The mixture was stirred thoroughly to prepare an aqueous solution containing the test compound in a predetermined concentration. This was used as a test water. Twenty water-fleas (Daphnia pulex) were released into each test water which was maintained at 25±1° C. After 6 hours, the water-fleas were examined for deaths. The TLm (median tolerance limit, ppm) was determined.

[2] = tested on: brown planthoppers (Nilaparvata lugens Stal); assay: Utility Example-1: LC50 on adult brown planthoppers on dipped rice plants; type: in vivo; details: 25° C.; for Pesticidal activity LC50: 24 hours, 1440 min
How it was run: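 Rice plants 4 weeks from sowing were dipped in water-diluted 1% emulsifiable concentrate at set concentrations and air-dried. Thirty adult N. lugens were caged on each pot, held at 25 °C.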

fish = assay: Fish toxicity safety factor (TLm divided by maximum concentration in cover water); parameters: species or system carp; details: TLm / maximum concentration in cover water at LC50 application (100 l per 10 ares, 5 cm depth)
How it was run: (§1)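 Calculated index: carp TLm (ppm) divided by the maximum compound concentration expected in paddy cover water. That concentration assumes 100 l of solution at the pest LC50 applied per 10 ares onto 5 cm deep cover water, all of it entering the water.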

carp (Cyprinus carpio L) = assay: Fish toxicity test with carp; type: in vivo; details: 48 hrs., 21±1° C.; 2880 min
How it was run: (§2)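 Compound in acetone with Tween-20 dispersed in 50 L aerated water at a set concentration; five carp (about 6 g, 6 cm) exposed at 21±1° C. Deaths checked after 48 h, and TLm (median tolerance limit, ppm) determined.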

carp and water flea = assay: Fish toxicity ranking according to Japanese regulations; parameters: species or system Cyprinus carpio L; Daphnia pulex; details: from TLm for carp and water flea
How it was run: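 Ranking per Japanese agrochemical regulations from median tolerance limits: A = carp TLm (48 hrs.) >10 ppm and water flea TLm (3 hrs.) >0.5 ppm; B = carp 10-0.5 ppm, or carp >10 ppm with water flea <0.5 ppm; C = carp TLm (48 hrs.) <0.5 ppm.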

[3] = tested on: green rice leafhoppers (Nephotettix cincticeps Uhler); assay: Mortality test with green rice leafhoppers by topical application method
Method: Mortality test with green rice leafhoppers (Nephotettix cincticeps Uhler) by topical application method
Then, the insects were kept at 25° C. with access to rice plant seedlings. The insects were used in groups of 15 individuals each.

[4] = tested on: rice stem borers (Chilo suppressalis Walker); assay: Mortality test with rice stem borers by topical application method; type: in vivo; details: 24 h
Method: Mortality test with rice stem borers (Chilo suppressalis Walker) by topical application method
Using a microsyringe, 0.5 μl of the above solution was applied to the thoracic abdominal region of each final-instar larva of rice stem borer (Chilo suppressalis Walker). […] The test larvae were used in groups of 20 individuals each.

crop plants = assay: Phytotoxicity test; type: in vivo; details: 2,000 ppm solution on leaves, after 10 days
Source text: A 2,000 ppm solution of each of the cis- and trans-isomers and a 50:50 mixture of cis- and trans-isomers of Compound (1) and of Compound (2), and a 50:50 mixture of the cis- and trans-isomers of Compound (B) and Compound (E) was applied to the leaves of the following crop plants.
After 10 days, the crop plants were examined for their phytotoxicities.

[5] = Fish toxicity safety factor (TLm divided by maximum concentration in cover water); parameters: species or system carp; details: in vivo, TLm / maximum concentration in cover water at LC50 application (100 l per 10 ares, 5 cm depth)
How it was run: as §1

[6] = Fish toxicity test with guppies; type: in vivo, Lebistes reticulatus; details: guppy, water, guppies, 20° C., read-out: TLm (48 hrs.)
How it was run: (§3)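 Ten female guppies, 3–4 months old, held at 20 °C in water containing surfactant and test compound added in acetone solution. TLm (median tolerance limit, ppm) determined.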

[7] = tested on: guppies (Lebistes reticulatus); assay: Fish toxicity test with guppies; type: in vivo; details: Table 1; 48 hrs.
How it was run: as §3

[8] = tested on: houseflies (Musca domestica); assay: Mortality test with houseflies by topical application method; details: 24 h
[9] = Fish toxicity test with carp; type: in vivo, Cyprinus carpio L; details: carp, water, 48 hrs., 21±1° C.; read-out: TLm, Carp (48 hrs.)
How it was run: as §2

[10] = Acute toxicity test in rat by the oral route; type: in vivo; details: in vivo, male rat, in olive oil, after 7 days
Source text: Acute toxicity test in rat by the oral route

[11] = tested on: tobacco cutworms (Prodenia litura Fabricius); assay: Mortality test with tobacco cutworms by topical application method; type: in vivo; details: 24 h, read-out: Pesticidal effect, tobacco cutworm
Method: Mortality test with tobacco cutworms (Prodenia litura Fabricius) by topical application method
Using a microsyringe, 0.5 μl of the above solution was dripped onto the thoracic adbominal region of each of 3-instar tobacco cutworm (Prodenia litura Fabricius) larvae. […] The test larvae were used in groups of 20 individuals each.

[12] = Nephotettix cincticeps, in Oryza sativa, 24 h

**Q.** For `C#CC(OC(=O)C1C(C=C(Cl)Cl)C1(C)C)c1cccc(Oc2ccc(Cl)cc2)c1` (stereo not drawn) [Compound (2), 3-(4-chlorophenoxy)-α-ethynylbenzyl 2,2-dimethyl-3-(2,2-dichlorovinyl)cyclopropanecarboxylate], which “pesticidal effectiveness in words” value (pests) is on record?
**A.** excellent pesticidal activity against both the sensitive and resistant strains of pests; also recorded: at least equivalent or superior in pesticidal effectiveness to control compounds (A), (B), (C), (D), (E), (F), (G) and (H)

**Q.** Which “pesticidal effectiveness in words” value (pests) does the source give for `CC1(C)C(C=C(Cl)Cl)C1C(=O)OCc1cccc(Oc2ccc(Cl)cc2)c1` (centres unmarked) [Compound (1), 3-(4-chlorophenoxy)benzyl 2,2-dimethyl-3-(2,2-dichlorovinyl)cyclopropanecarboxylate] here?
**A.** excellent pesticidal activity against both the sensitive and resistant strains of pests; also recorded: at least equivalent or superior in pesticidal effectiveness to control compounds (A), (B), (C), (D), (E), (F), (G) and (H)

**Q.** For `C#CC(OC(=O)C1C(C=C(Cl)Cl)C1(C)C)c1cccc(Oc2ccc(Cl)cc2)c1` (stereo not drawn) [Compound (2) cis-/trans- = 10:90], which “TLm, Water-flea (6 hrs.)” value [1] is on record?
**A.** > 40 ppm

**Q.** And the “Pesticidal activity LC50” value [2]?
**A.** 180 ppm

**Q.** And the “Fish toxicity safety factor” value (fish)?
**A.** 20

**Q.** And the “TLm, Carp (48 hrs.)” value (carp (Cyprinus carpio L))?
**A.** 7.2 ppm

**Q.** What about the Ranking (carp and water flea) of the same compound?
**A.** B (TLm (48 hrs.) value 10-0.5 ppm for carp; or TLm (48 hrs.) value >10 ppm for carp and TLm (3 hrs.) value <0.5 ppm for water flea, wherein appreciable toxicity to fishes is not observed by usual application but may be observed when applied to wide area at one time.)

**Q.** What does the source list for `C#CC(OC(=O)C1C(C=C(Cl)Cl)C1(C)C)c1cccc(Oc2ccc(Cl)cc2)c1` (stereo not drawn) [Compound (2) cis-/trans- = 30:70]?
**A.** TLm, Water-flea (6 hrs.) [1]: > 40 ppm; Pesticidal activity LC50 [2]: 180 ppm; Fish toxicity safety factor (fish): 13.6; TLm, Carp (48 hrs.) (carp (Cyprinus carpio L)): 4.9 ppm; LD50 (median lethal dose) ([3]; green rice leafhoppers, 1440 min): 0.40 µg/g; Ranking (carp and water flea): B (TLm (48 hrs.) value 10-0.5 ppm for carp; or TLm (48 hrs.) value >10 ppm for carp and TLm (3 hrs.) value <0.5 ppm for water flea, wherein appreciable toxicity to fishes is not observed by usual application but may be observed when applied to wide area at one time.)

**Q.** Which results are given for `CC(C)C(C(=O)OC(C#N)c1cccc(Oc2ccccc2)c1)c1ccc(Cl)cc1` (centres unmarked) [Compound (E), Fenvalerate]?
**A.** mortality at 1 µg/larva [4]: 100%; mortality at 10 µg/larva [4]: 100%; mortality at 0.001 mg ([4]; read-out: Pesticidal effect, rice stem borer): 100%; LC50 ([2]; Nilaparvata lugens, 24 h, read-out: Pesticidal activity LC50): 1550 µg/mL (≈ 3690 µM); phytotoxicity (crop plants): caused chlorosis to each one of the crop plants and did large damage to the same; selectivity ratio [5]: 0.001; LC50 at 48 h [6]: < 0.5 µg/mL; Toxicity to fish TLm, guppy [7]: < 0.5 ppm; mortality at 0.5 µg/female [8]: 100%; mortality at 1 µg/female [8]: 100%; mortality at 0.001 mg ([8]; read-out: Pesticidal effect, housefly): 100%; LC50 at 48 h [9]: 0.0032 µg/mL (≈ 0.00762 µM); LD50 at 168 h [10]: 440 mg/kg; mortality at 0.01 µg/female [3, 12]: 100%; mortality at 0.1 µg/female [3, 12]: 100%; mortality at 1 µg/female [3, 12]: 100%; mortality at 10 ng ([3]; Nephotettix cincticeps, in Oryza sativa, 24 h, read-out: Pesticidal effect, green rice leafhopper): 100%; Ranking (carp and water flea): C (TLm (48 hrs.) value <0.5 ppm for carp, wherein toxicity to fishes is so strongly observed by usual application that both the application method and application area are strictly restricted.); mortality at 0.0001 mg [11]: 100%

Reference: US4389412A, “Substituted cyclopropanecarboxylic acid esters and pesticidal compositions containing the same as active ingredient” (priority 1979, dated 1983)
